Results as given in paper PMC6152322, “Synthesis and Evaluation of New Oxadiazole, Thiadiazole, and Triazole Derivatives as Potential Anticancer Agents Targeting MMP-9” (Molecules : A Journal of Synthetic Chemistry and Natural …, 2017).
Like-named read-outs stand apart in the source and are kept apart here.

Experiments:
C6 rat glioma cell line = assay: XTT cytotoxicity assay on C6 cells; format: cell-based; details: 24 h incubation, Mean ± standard deviation, read-out: IC50 Values for Cell Lines C6
Description: (§1) NIH/3T3 Mouse embryonic fibroblast (ATCC® CRL-1658™, American Type Culture Collection (ATCC), Manassas, VA, USA), A549 human lung adenocarcinoma (ATCC® CCL-185™, American Type Culture Collection (ATCC), Manassas, VA, USA) and C6 rat glioma (ATCC® CCL-107™, American Type Culture Collection (ATCC), Manassas, VA, USA) cell lines were used for cytotoxicity tests. NIH/3T3 cell line was used to investigate the selectivity of the compounds, whereas other cell lines were used to determine anticancer activity. All cell lines were incubated according to the instructions of the supplier at 37 °C in a humidified atmosphere of 95% air and 5% CO2. NIH/3T3, A549 and C6 cells were seeded at 1 × 10^4 cells into each well of 96-well plate. After 24 h of incubating period, the culture mediums were removed and compound was added to culture medium at 500–3.9 μg/mL doses with a dilution factor of 2 (3.9, 7.8, 15.6, 31.2, 62.5, 125, 250, 500 μg/mL). After 24 h of incubation, XTT (2,3-bis(2-methoxy-4-nitro-5-sulfophenyl)-2H-tetrazolium-5-carboxanilide) assay was performed using the In Cytotox-XTT 1 Parameter Cytotoxicity Kit (Xenometrix, Allschwil, Switzerland) as previously described. […] All experiments were done in quadruplicates at three different time points, and the results were given as Mean ± standard deviation. Cisplatin was used as a positive control. The stock solutions of the compounds were prepared in dimethyl sulfoxide (DMSO) and further dilutions were made with fresh culture medium. The final DMSO concentration was under 0.1%.
(§2) Inhibition%=100−( corrected mean OD sample/corrected mean OD solvent controls ×100)

[1] = system: A549 human lung adenocarcinoma cell line; assay: XTT cytotoxicity assay on A549 cells; format: cell-based; details: for IC50: Mean ± standard deviation, read-out: IC50 Values for Cell Lines A549
Description: as §1, §2

MMP-8 = molecular target: T1, MMP-8 (Homo sapiens, UniProt P22894); assay: MMP-8 colorimetric inhibition assay; format: biochemical; details: for Inhibition % (Mean ± SD) MMP-8: 1.3 μM
T1 construct: purchased Enzo Life Sciences Inc
T1 sequence (P22894 101-467): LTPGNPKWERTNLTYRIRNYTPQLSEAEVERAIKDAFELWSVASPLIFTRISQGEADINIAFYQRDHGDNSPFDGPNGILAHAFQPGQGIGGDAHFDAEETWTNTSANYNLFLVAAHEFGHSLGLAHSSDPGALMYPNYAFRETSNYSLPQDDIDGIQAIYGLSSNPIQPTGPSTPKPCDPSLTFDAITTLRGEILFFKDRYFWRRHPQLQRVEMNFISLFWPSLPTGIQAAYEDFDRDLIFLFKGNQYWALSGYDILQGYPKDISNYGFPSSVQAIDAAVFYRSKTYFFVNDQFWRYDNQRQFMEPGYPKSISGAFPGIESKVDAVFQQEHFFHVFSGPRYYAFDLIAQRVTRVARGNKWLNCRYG
Description: (§3) MMP-1, -2, -8, -9, -13 colorimetric kits were purchased from Enzo Life Sciences Inc. (Farmingdale, New York, NY, USA). The MMP Colorimetric Drug Discovery Kits are complete assay system designed to screen MMP inhibitors using a thiopeptide as a chromogenic substrate (Ac-PLG-[2-mercapto-4-methyl-pentanoyl]-LG-OC2H5). The MMP cleavage site peptide bond is replaced by a thioester bond in the thiopeptide. Hydrolysis of this bond by a MMP produces a sulfhydryl group, which reacts with DTNB [5,5′-dithiobis(2-nitrobenzoic acid), Ellman’s reagent] to form 2-nitro-5-thiobenzoic acid, which can be detected by its absorbance at 412 nm. The assays were conducted in triplicate. The UV absorbance was read at 412 nm using a microplate reader (BioTek, PowerWave, Gen5 software, Winooski, VT, USA) at room temperature. NNGH was used as a control inhibitor. Data was expressed as Mean ± SD [63].
(§4) The inhibitor% remaining activity of MMPs was calculated using the following equation: Inhibitor% activity remaining = (V inhibitor/V control) × 100
(§5) The inhibition (percent) of MMPs was calculated using the following equation:I (%) = 100 − Inhibitor% activity remaining

[2] = system: NIH/3T3 mouse embryonic fibroblast cell line; assay: XTT cytotoxicity assay on NIH/3T3 cells; format: cell-based; details: NIH3T3, 24 h incubation, Mean ± standard deviation, read-out: IC50 Values for Cell Lines NIH/3T3
Description: as §1, §2

MMP-9 = molecular target: T2, MMP-9 (Homo sapiens, UniProt P14780); assay: MMP-9 colorimetric inhibition assay; format: biochemical; details: for inhibition at 1.3 µM: read-out: Inhibition % (Mean ± SD) MMP-9
T2 construct: purchased Enzo Life Sciences Inc
T2 sequence (P14780 94-707): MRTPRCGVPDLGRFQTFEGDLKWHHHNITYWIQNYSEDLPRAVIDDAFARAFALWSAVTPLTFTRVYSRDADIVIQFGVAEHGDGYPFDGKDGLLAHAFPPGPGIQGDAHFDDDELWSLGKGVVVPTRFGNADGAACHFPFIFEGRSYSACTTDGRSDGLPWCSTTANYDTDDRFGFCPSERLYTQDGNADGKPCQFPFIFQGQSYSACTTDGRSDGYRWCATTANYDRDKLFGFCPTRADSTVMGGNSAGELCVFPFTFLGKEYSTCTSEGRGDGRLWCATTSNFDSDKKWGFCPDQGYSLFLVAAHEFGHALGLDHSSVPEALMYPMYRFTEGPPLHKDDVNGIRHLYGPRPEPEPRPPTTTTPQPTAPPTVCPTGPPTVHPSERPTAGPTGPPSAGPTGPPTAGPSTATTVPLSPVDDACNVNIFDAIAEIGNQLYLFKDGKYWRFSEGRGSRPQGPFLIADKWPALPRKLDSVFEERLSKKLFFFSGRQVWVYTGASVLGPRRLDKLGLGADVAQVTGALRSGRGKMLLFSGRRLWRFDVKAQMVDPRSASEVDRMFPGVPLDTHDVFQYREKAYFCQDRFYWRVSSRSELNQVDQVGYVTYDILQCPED
Description: as §3, §4, §5

MMP-13 = molecular target: T3, MMP-13 (Homo sapiens, UniProt P45452); assay: MMP-13 colorimetric inhibition assay; format: biochemical; details: 1.3 μM
T3 construct: purchased Enzo Life Sciences Inc
Description: as §3, §4, §5

MMP-1 = molecular target: T4, MMP-1 (Homo sapiens, UniProt P03956); assay: MMP-1 colorimetric inhibition assay; format: biochemical; details: 1.3 μM
T4 construct: purchased Enzo Life Sciences Inc
T4 sequence (P03956 100-469): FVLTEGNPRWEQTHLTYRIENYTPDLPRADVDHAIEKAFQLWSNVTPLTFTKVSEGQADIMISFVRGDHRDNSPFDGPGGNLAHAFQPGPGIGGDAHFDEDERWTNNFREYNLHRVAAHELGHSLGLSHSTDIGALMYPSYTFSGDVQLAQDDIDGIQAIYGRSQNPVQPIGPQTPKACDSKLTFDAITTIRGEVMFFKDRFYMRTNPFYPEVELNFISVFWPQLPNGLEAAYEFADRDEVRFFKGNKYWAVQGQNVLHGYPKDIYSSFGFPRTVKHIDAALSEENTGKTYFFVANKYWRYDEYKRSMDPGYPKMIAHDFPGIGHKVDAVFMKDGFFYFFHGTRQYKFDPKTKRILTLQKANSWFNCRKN
Description: as §3, §4, §5

MMP-2 = molecular target: T5, MMP-2 (Homo sapiens, UniProt P08253); assay: MMP-2 colorimetric inhibition assay; format: biochemical; details: 1.3 μM
T5 construct: purchased Enzo Life Sciences Inc
T5 sequence (P08253 110-660): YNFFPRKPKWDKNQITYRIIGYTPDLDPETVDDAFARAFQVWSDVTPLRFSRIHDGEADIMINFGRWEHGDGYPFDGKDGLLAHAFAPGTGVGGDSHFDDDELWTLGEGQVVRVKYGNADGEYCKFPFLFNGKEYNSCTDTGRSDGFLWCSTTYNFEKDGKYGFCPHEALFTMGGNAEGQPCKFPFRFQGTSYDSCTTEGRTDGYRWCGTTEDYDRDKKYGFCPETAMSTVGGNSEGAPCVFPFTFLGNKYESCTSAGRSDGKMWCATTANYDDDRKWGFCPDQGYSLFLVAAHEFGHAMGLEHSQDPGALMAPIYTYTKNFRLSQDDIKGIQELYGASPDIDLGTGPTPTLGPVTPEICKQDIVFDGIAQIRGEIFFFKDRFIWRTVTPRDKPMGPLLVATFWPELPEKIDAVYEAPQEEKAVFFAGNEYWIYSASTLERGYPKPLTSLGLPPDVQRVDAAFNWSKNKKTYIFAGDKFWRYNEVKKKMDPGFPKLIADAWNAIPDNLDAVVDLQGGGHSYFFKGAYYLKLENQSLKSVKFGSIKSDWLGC
Description: as §3, §4, §5

[3] = Homo sapiens, A549, 24 h incubation

Compound: N.N.[Cl][Pt][Cl] [Cisplatin, reference compound]
- IC50 (C6 rat glioma cell line): 103 ± 26 µM
- IC50 ([1]; 24 h incubation): 0.14 ± 0.03 mM

Compound: O=C(CSc1nnc(Nc2ccc(Cl)cc2Cl)s1)N1CCOCC1 [Compound 1, 2-{[5-((2,4-Dichlorophenyl)amino)-1,3,4-thiadiazol-2-yl]thio}-1-morpholinoethan-1-one]
- melting point: 154 °C
- inhibition at 1.3 µM (MMP-8; read-out: Inhibition % (Mean ± SD) MMP-8): 15 ± 1.4%
- IC50 [2]: 0.308 ± 0.037 mM
- IC50 (C6 rat glioma cell line; Rattus norvegicus, Glioma cell): 128 ± 27 µM
- IC50 [1, 3]: > 1.23 mM
- inhibition at 1.3 µM (MMP-9): 24.8 ± 0.86%

Compound: Nn1c(COc2ccccc2)nnc1SCC(=O)N1CCOCC1 [Compound 2, 2-{[4-Amino-5-(phenoxymethyl)-4H-1,2,4-triazol-3-yl]thio}-1-morpholinoethan-1-one]
- melting point: 213 °C
- IC50 [2]: 1.41 ± 0.094 mM
- IC50 (C6 rat glioma cell line; Rattus norvegicus, Glioma cell): > 1430 µM
- IC50 [1, 3]: > 1.43 mM

Compound: COc1ccc(OCc2nnc(SCC(=O)N3CCOCC3)o2)cc1 [Compound 3, 2-{[5-((4-Methoxyphenoxy)methyl)-1,3,4-oxadiazol-2-yl]thio}-1-morpholinoethan-1-one]
- melting point: 119 °C
- IC50 [2]: 1.37 ± 0.074 mM
- IC50 (C6 rat glioma cell line; Rattus norvegicus, Glioma cell): 507 ± 49 µM
- IC50 [1, 3]: 1.37 ± 0.058 mM

Compound: O=C(CSc1nnc(COc2ccc3c(c2)CCCC3)o1)N1CCOCC1 [Compound 4, 2-{[5-(((5,6,7,8-Tetrahydronaphthalen-2-yl)oxy)methyl)-1,3,4-oxadiazol-2-yl]thio}-1-morpholinoethan-1-one]
- IC50 [2]: 1.28 ± 0.09 mM
- IC50 (C6 rat glioma cell line; Rattus norvegicus, Glioma cell): > 1280 µM
- IC50 [1, 3]: > 1.28 mM

Compound: O=C(CSc1nnc(Nc2ccc(Cl)cc2Cl)s1)NCc1ccc2c(c1)OCO2 [Compound 5, N-(1,3-Benzodioxol-5-ylmethyl)-2-{[5-((2,4-dichlorophenyl)amino)-1,3,4-thiadiazol-2-yl]thio}acetamide]
- melting point: 187 °C
- IC50 [2]: > 1.07 mM
- IC50 (C6 rat glioma cell line; Rattus norvegicus, Glioma cell): > 1070 µM
- cytotoxic activity against A549 cell line (in words) ([1]; 24 h incubation): did not show any cytotoxic activity
- IC50 [1, 3]: > 1.07 mM

Compound: Nn1c(COc2ccccc2)nnc1SCC(=O)NCc1ccc2c(c1)OCO2 [Compound 6, 2-{[4-Amino-5-(phenoxymethyl)-4H-1,2,4-triazol-3-yl]thio}-N-(1,3-benzodioxol-5-ylmethyl)acetamide]
- melting point: 148 °C
- IC50 [2]: > 1.21 mM
- IC50 (C6 rat glioma cell line; Rattus norvegicus, Glioma cell): > 1210 µM
- cytotoxic activity against A549 cell line (in words) ([1]; 24 h incubation): did not show any cytotoxic activity
- IC50 [1, 3]: > 1.21 mM

Compound: COc1ccc(OCc2nnc(SCC(=O)NCc3ccc4c(c3)OCO4)o2)cc1 [Compound 7, N-(1,3-Benzodioxol-5-ylmethyl)-2-{[5-((4-methoxyphenoxy)methyl)-1,3,4-oxadiazol-2-yl]thio}acetamide]
- melting point: 127 °C
- IC50 [2]: 0.1 ± 0.011 mM
- IC50 (C6 rat glioma cell line; Rattus norvegicus, Glioma cell): > 1170 µM
- cytotoxic activity against A549 cell line (in words) ([1]; 24 h incubation): did not show any cytotoxic activity
- IC50 [1, 3]: > 1.17 mM

Compound: O=C(CSc1nnc(COc2ccc3c(c2)CCCC3)o1)NCc1ccc2c(c1)OCO2 [Compound 8, N-(1,3-Benzodioxol-5-ylmethyl)-2-{[5-(((5,6,7,8-tetrahydronaphthalen-2-yl)oxy)methyl)-1,3,4-oxadiazol-2-yl]thio}acetamide]
- melting point: 96 °C
- Inhibition % (Mean ± SD) MMP-8 (MMP-8): no inhibitory activity
- IC50 [2]: > 1.1 mM
- IC50 (C6 rat glioma cell line; Rattus norvegicus, Glioma cell): 137 ± 15 µM
- IC50 [1, 3]: 0.125 ± 0.02 mM
- inhibition at 1.3 µM (MMP-9): 25.8 ± 2.16%

Compound: O=C(CSc1nnc(-c2ccccc2)o1)NCc1ccc2c(c1)OCO2 [Compound 9, N-(1,3-Benzodioxol-5-ylmethyl)-2-[(5-phenyl-1,3,4-oxadiazol-2-yl)thio]acetamide]
- melting point: 136 °C
- Inhibition % (Mean ± SD) MMP-8 (MMP-8): no inhibitory activity
- IC50 [2]: 0.888 ± 0.029 mM
- IC50 (C6 rat glioma cell line; Rattus norvegicus, Glioma cell): 157 ± 16 µM
- IC50 [1, 3]: 0.349 ± 0.046 mM
- inhibition at 1.3 µM (MMP-9): 30.5 ± 3.27%

Compound: COc1ccc(S(=O)(=O)N(CC(=O)NO)CC(C)C)cc1 [NNGH, N-isobutyl-N-(4-methoxyphenylsulfonyl)glycyl hydroxamic acid]
- Inhibition % (Mean ± SD) MMP-13 (MMP-13): 93.74 ± 3.06%
- Inhibition % (Mean ± SD) MMP-1 (MMP-1): 87.79 ± 3.49%
- Inhibition % (Mean ± SD) MMP-8 (MMP-8): 100%
- Inhibition % (Mean ± SD) MMP-9 (MMP-9; 1.3 μM): 88.44 ± 3.35%
- Inhibition % (Mean ± SD) MMP-2 (MMP-2): 100%
